Measurements from US12172990B2 (Constellation Pharmaceuticals, Inc., priority 2018, dated 2024).

What was measured:
[1] = molecular target: full length human TREX1 (Homo sapiens (Human), UniProt Q9NSU2); test: TREX1 Biochemical Assay (fluorescence assay measuring degradation of dsDNA substrate); conditions: 150 pM TREX1, 60 nM dsDNA substrate, 25 minutes at room temperature
Description: Degradation of the dsDNA liberates free fluorophore to produce a fluorescent signal. Specifically, 7.5 μL of N-terminally His-Tev tagged full length human TREX1 (expressed in E. coli and purified in house) in reaction buffer (50 mM Tris (pH 7.4), 150 mM NaCl, 2 mM DTT, 0.1 mg/mL BSA, 0.01% (v/v) Tween-20 and 100 mM MgCl2 were added to a 384-well Black ProxiPlate Plus (Perkin Elmer) which already contained compound (150 nL) at varying concentrations as a 10 point dose-response in DMSO. To this was added 7.5 μL of dsDNA substrate (Strand A: 5′ TEX615/GCT AGG CAG 3′; Strand B: 5′ CTG CCT AGC/IAbRQSp (Integrated DNA Technologies)) in reaction buffer. Final concentrations were 150 pM TREX1, 60 nM dsDNA substrate in reaction buffer with 1.0% DMSO (v/v). After 25 minutes at room temperature, reactions were quenched by the addition of 5 μL of stop buffer (same as reaction buffer plus 200 mM EDTA). Final concentrations in the quenched reaction were 112.5 pM TREX1, 45 nM DNA and 50 mM EDTA in a volume of 20 μL. After a 5-minute incubation at room temperature, plates were read in a laser sourced Envision (Perkin-Elmer), measuring fluorescence at 615 nm following excitation w/570 nm light. IC50 values were calculated by comparing the measured fluorescence at 615 nm ratio relative to control wells pre-quenched w/stop buffer (100% inhibition) and no inhibitor (0% inhibition) controls as using non-linear least square four parameter fits and either Genedata or GraphPad Prism (GraphPad Software, Inc.).

[2] = molecular target: human TREX2 (residues M44-A279) (Homo sapiens (Human), UniProt Q9BQ50); test: TREX2 Biochemical Assay (fluorescence assay measuring degradation of dsDNA substrate); conditions: 2.5 nM TREX2, 60 nM dsDNA substrate, 25 minutes at room temperature
Description: Degradation of the dsDNA liberates free fluorophore to produce a fluorescent signal. Specifically, 7.5 μL of N-terminally His-Tev tagged human TREX2 (residues M44-A279, expressed in E. coli and purified in house) in reaction buffer (50 mM Tris (pH 7.4), 150 mM NaCl, 2 mM DTT, 0.1 mg/mL BSA, 0.01% (v/v) Tween-20 and 100 mM MgCl2) was added to a 384-well Black ProxiPlate Plus (Perkin Elmer) which already contained compound (150 nL) at varying concentrations as a 10 point dose-response in DMSO. To this was added 7.5 μL of dsDNA substrate (Strand A: 5′ TEX615/GCT AGG CAG 3′; Strand B: 5′ CTG CCT AGC/IAbRQSp (IDT)) in reaction buffer. Final concentrations were 2.5 nM TREX2, 60 nM dsDNA substrate in reaction buffer with 1.0% DMSO (v/v). After 25 minutes at room temperature, reactions were quenched by the addition of 5 μL of stop buffer (same as reaction buffer plus 200 mM EDTA). Final concentrations in the quenched reaction mixture were […] TREX2, 45 nM DNA and 50 mM EDTA in a volume of 20 μL. After a 5-minute incubation at room temperature, plates were read in a laser sourced Envision (Perkin-Elmer), measuring fluorescence at 615 nm following excitation w/570 nm light. IC50 values were calculated by comparing the measured fluorescence at 615 nm ratio relative to control wells pre-quenched w/stop buffer (100% inhibition) and no inhibitor (0% inhibition) controls as using non-linear least square four parameter fits and either Genedata or GraphPad Prism (GraphPad Software, Inc.).

Sequence of human TREX2 (residues M44-A279) (Q9BQ50 whole entry, the tested form may be a part): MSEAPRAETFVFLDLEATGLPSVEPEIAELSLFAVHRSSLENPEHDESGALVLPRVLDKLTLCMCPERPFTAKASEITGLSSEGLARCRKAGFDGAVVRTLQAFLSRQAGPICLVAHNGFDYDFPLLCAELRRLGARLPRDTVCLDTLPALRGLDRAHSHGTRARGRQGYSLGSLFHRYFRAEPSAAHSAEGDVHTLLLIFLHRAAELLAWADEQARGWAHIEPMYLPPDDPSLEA
Sequence of full length human TREX1 (Q9NSU2 whole entry): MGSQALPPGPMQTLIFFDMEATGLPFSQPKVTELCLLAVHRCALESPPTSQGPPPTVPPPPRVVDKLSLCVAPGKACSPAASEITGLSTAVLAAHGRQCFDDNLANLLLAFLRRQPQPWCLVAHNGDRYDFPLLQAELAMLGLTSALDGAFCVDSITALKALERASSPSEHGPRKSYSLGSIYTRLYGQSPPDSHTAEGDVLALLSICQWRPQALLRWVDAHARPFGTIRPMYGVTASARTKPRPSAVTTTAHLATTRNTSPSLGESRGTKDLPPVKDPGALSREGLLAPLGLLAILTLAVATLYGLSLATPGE

SMILES | IC50 [1] | IC50 [2]
Cn1c(-c2cccc(Br)c2CCO)nc(C(=O)Nc2cnoc2)c(O)c1=O [Example 78, 2-(3-bromo-2-(2-hydroxyethyl)phenyl)-5-hydroxy-N-(isoxazol-4-yl)-1-methyl-6-oxo-1,6-dihydropyrimidine-4-carboxamide] | < 0.1 µM | 1 to 10 µM
Cn1c(N2CCN(C(=O)c3ccccc3)CC2)nc(C(=O)Nc2cnoc2)c(O)c1=O [Example 100, 2-(4-benzoylpiperazin-1-yl)-5-hydroxy-N-(isoxazol-4-yl)-1-methyl-6-oxo-1,6-dihydropyrimidine-4-carboxamide] | 0.1 to 1 µM | 10 to 100 µM
Cc1cccc(-c2nc(C(=O)Nc3cnoc3)c(O)c(=O)n2C)c1 [Example 44, 5-hydroxy-N-(isoxazol-4-yl)-1-methyl-6-oxo-2-(m-tolyl)-1,6-dihydropyrimidine-4-carboxamide] | 0.1 to 1 µM | 10 to 100 µM
Cn1c(C2(C)CCCN(C(=O)c3ccc(Cl)c(Cl)c3)C2)nc(C(=O)Nc2cnoc2)c(O)c1=O (stereo not drawn) [Example 130, 2-(1-(3,4-dichlorobenzoyl)-3-methylpiperidin-3-yl)-5-hydroxy-N-(isoxazol-4-yl)-1-methyl-6-oxo-1,6-dihydropyrimidine-4-carboxamide] | 0.1 to 1 µM | 1 to 10 µM
Cn1c(C2(Cc3ccccc3)CCCN(C(=O)OC(C)(C)C)C2)nc(C(=O)Nc2cnoc2)c(O)c1=O (stereo not drawn) [Example 50, tert-butyl 3-benzyl-3-(5-hydroxy-4-(isoxazol-4-ylcarbamoyl)-1-methyl-6-oxo-1,6-dihydropyrimidin-2-yl)piperidine-1-carboxylate] | 0.1 to 1 µM | 10 to 100 µM
COc1ccccc1C(=O)N1CCCC(c2nc(C(=O)Nc3cnoc3)c(O)c(=O)n2C)C1 (stereo not drawn) [Example 41, 5-hydroxy-N-(isoxazol-4-yl)-2-(1-(2-methoxybenzoyl)piperidin-3-yl)-1-methyl-6-oxo-1,6-dihydropyrimidine-4-carboxamide] | 0.1 to 1 µM | 10 to 100 µM
Cn1c(OC2CCCCC2)nc(C(=O)Nc2cnoc2)c(O)c1=O [Example 121, 2-(cyclohexyloxy)-5-hydroxy-N-(isoxazol-4-yl)-1-methyl-6-oxo-1,6-dihydropyrimidine-4-carboxamide] | < 0.1 µM | 1 to 10 µM
CNC(=O)c1cc(C)cc(-c2nc(C(=O)Nc3cnoc3)c(O)c(=O)n2C)c1 [Example 55, 5-hydroxy-N-(isoxazol-4-yl)-1-methyl-2-(3-methyl-5-(methylcarbamoyl)phenyl)-6-oxo-1,6-dihydropyrimidine-4-carboxamide] | < 0.1 µM | 1 to 10 µM
CC(C)C(=O)N1CCCC(c2nc(C(=O)Nc3cnoc3)c(O)c(=O)n2C)C1 (stereo not drawn) [Example 96, 5-hydroxy-2-(1-isobutyrylpiperidin-3-yl)-N-(isoxazol-4-yl)-1-methyl-6-oxo-1,6-dihydropyrimidine-4-carboxamide] | 0.1 to 1 µM | 10 to 100 µM
Cn1c([C@@H]2CCN(C(=O)c3ccc(Cl)cc3)C2)nc(C(=O)Nc2cnoc2)c(O)c1=O [Example 86, (R)-2-(1-(4-chlorobenzoyl)pyrrolidin-3-yl)-5-hydroxy-N-(isoxazol-4-yl)-1-methyl-6-oxo-1,6-dihydropyrimidine-4-carboxamide] | 0.1 to 1 µM | 10 to 100 µM
CN1CCN(c2nc(C(=O)Nc3cnoc3)c(O)c(=O)n2C)CC1 [Example 49, 5-hydroxy-N-(isoxazol-4-yl)-1-methyl-2-(4-methylpiperazin-1-yl)-6-oxo-1,6-dihydropyrimidine-4-carboxamide] | 0.1 to 1 µM | 10 to 100 µM
Cn1c(C2CCCN(C(=O)OC(C)(C)C)C2)nc(C(=O)Nc2cnoc2)c(O)c1=O (stereo not drawn) [Example 13, tert-butyl 3-(5-hydroxy-4-(isoxazol-4-ylcarbamoyl)-1-methyl-6-oxo-1,6-dihydropyrimidin-2-yl)piperidine-1-carboxylate] | 0.1 to 1 µM | 10 to 100 µM
Cn1c(C2CCC2)nc(C(=O)Nc2cnoc2)c(O)c1=O [Example 2, 2-cyclobutyl-5-hydroxy-N-(isoxazol-4-yl)-1-methyl-6-oxo-1,6-dihydropyrimidine-4-carboxamide] | 0.1 to 1 µM | 10 to 100 µM
Cn1c(N2CC[C@H](c3ccccc3)C2)nc(C(=O)Nc2cnoc2)c(O)c1=O [Example 108, (R)-5-hydroxy-N-(isoxazol-4-yl)-1-methyl-6-oxo-2-(3-phenylpyrrolidin-1-yl)-1,6-dihydropyrimidine-4-carboxamide] | < 0.1 µM | 10 to 100 µM
Cn1c(N2CCC[C@@H]2c2cccnc2)nc(C(=O)Nc2cnoc2)c(O)c1=O [Example 102, (R)-5-hydroxy-N-(isoxazol-4-yl)-1-methyl-6-oxo-2-(2-(pyridin-3-yl)pyrrolidin-1-yl)-1,6-dihydropyrimidine-4-carboxamide] | 0.1 to 1 µM | 10 to 100 µM
Cn1c(CC2CCCN(C(=O)OC(C)(C)C)C2)nc(C(=O)Nc2cnoc2)c(O)c1=O (stereo not drawn) [Example 18, tert-butyl 3-((5-hydroxy-4-(isoxazol-4-ylcarbamoyl)-1-methyl-6-oxo-1,6-dihydropyrimidin-2-yl)methyl)piperidine-1-carboxylate] | 0.1 to 1 µM | 10 to 100 µM
Cn1c(N2CC[C@H](C(N)=O)C2)nc(C(=O)Nc2cnoc2)c(O)c1=O [Example 117, (S)-2-(3-carbamoylpyrrolidin-1-yl)-5-hydroxy-N-(isoxazol-4-yl)-1-methyl-6-oxo-1,6-dihydropyrimidine-4-carboxamide] | 0.1 to 1 µM | 10 to 100 µM
Cn1c(C2CCCN(CC(F)(F)F)C2)nc(C(=O)Nc2cnoc2)c(O)c1=O (stereo not drawn) [Example 98, 5-hydroxy-N-(isoxazol-4-yl)-1-methyl-6-oxo-2-(1-(2,2,2-trifluoroethyl)piperidin-3-yl)-1,6-dihydropyrimidine-4-carboxamide] | 0.1 to 1 µM | 10 to 100 µM
CN(C)CCCC(=O)N1CCCC(c2nc(C(=O)Nc3cnoc3)c(O)c(=O)n2C)C1 (stereo not drawn) [Example 60, 2-(1-(4-(dimethylamino)butanoyl)piperidin-3-yl)-5-hydroxy-N-(isoxazol-4-yl)-1-methyl-6-oxo-1,6-dihydropyrimidine-4-carboxamide] | 1 to 10 µM | 10 to 100 µM
Cn1c(C2CCCN(S(C)(=O)=O)C2)nc(C(=O)Nc2cnoc2)c(O)c1=O (stereo not drawn) [Example 87, 5-hydroxy-N-(isoxazol-4-yl)-1-methyl-2-(1-(methylsulfonyl)piperidin-3-yl)-6-oxo-1,6-dihydropyrimidine-4-carboxamide] | 1 to 10 µM | 10 to 100 µM
Cn1c(C2CCCN(C(=O)c3cccnc3)C2)nc(C(=O)Nc2cnoc2)c(O)c1=O (stereo not drawn) [Example 62, 5-hydroxy-N-(isoxazol-4-yl)-1-methyl-2-(1-nicotinoylpiperidin-3-yl)-6-oxo-1,6-dihydropyrimidine-4-carboxamide] | 0.1 to 1 µM | 1 to 10 µM
Cn1c(-c2ccccc2-c2ccncc2)nc(C(=O)Nc2cnoc2)c(O)c1=O [Example 67, 5-hydroxy-N-(isoxazol-4-yl)-1-methyl-6-oxo-2-(2-(pyridin-4-yl)phenyl)-1,6-dihydropyrimidine-4-carboxamide] | 1 to 10 µM | 10 to 100 µM
CC(=O)N1CCCN(c2nc(C(=O)Nc3cnoc3)c(O)c(=O)n2C)CC1 [Example 111, 2-(4-acetyl-1,4-diazepan-1-yl)-5-hydroxy-N-(isoxazol-4-yl)-1-methyl-6-oxo-1,6-dihydropyrimidine-4-carboxamide] | 0.1 to 1 µM | 10 to 100 µM
Cn1c(N2CCCC[C@H]2CCO)nc(C(=O)Nc2cnoc2)c(O)c1=O [Example 106, (S)-5-hydroxy-2-(2-(2-hydroxyethyl)piperidin-1-yl)-N-(isoxazol-4-yl)-1-methyl-6-oxo-1,6-dihydropyrimidine-4-carboxamide] | 0.1 to 1 µM | 10 to 100 µM
